Among the data in PMC9645382 (Drug development research, 2019) are IC50 values, retold here.

What is called IC50 is the concentration that gives 50% inhibition.

The target in the experiment is T1, human neutrophil elastase (HNE) (Homo sapiens, UniProt P08246).
T1 sequence (P08246 30-267): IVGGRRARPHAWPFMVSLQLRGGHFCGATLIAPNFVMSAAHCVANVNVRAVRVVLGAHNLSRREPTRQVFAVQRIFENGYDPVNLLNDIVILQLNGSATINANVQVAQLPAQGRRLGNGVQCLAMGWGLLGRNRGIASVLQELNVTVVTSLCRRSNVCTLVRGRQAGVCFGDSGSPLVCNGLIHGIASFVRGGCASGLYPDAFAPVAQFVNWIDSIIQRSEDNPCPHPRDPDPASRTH
Description: HNE inhibition assay. Type of experiment: biochemical.
Regarding `O=C(C1CC1)n1cc(-c2ccccc2)c(=O)o1` [Compound 3a, 2-(Cyclopropanecarbonyl)-4-phenylisoxazol-5(2H)-one], the IC50 turned out to be 16 ± 5 nM.
The figure for `Cc1ccc(-c2cn(C(=O)C3CC3)oc2=O)cc1` [Compound 3b, 2-(Cyclopropanecarbonyl)-4-(p-tolyl)isoxazol-5(2H)-one] is 26 ± 4 nM; for `Cc1cccc(-c2cn(C(=O)C3CC3)oc2=O)c1` [Compound 3c, 2-(Cyclopropanecarbonyl)-4-(m-tolyl)isoxazol-5(2H)-one] it is 22 ± 5 nM; for `Cc1ccccc1-c1cn(C(=O)C2CC2)oc1=O` [Compound 3d, 2-(Cyclopropanecarbonyl)-4-(o-tolyl)isoxazol-5(2H)-one] it is 39 ± 11 nM.
Then `O=C(C1CC1)n1cc(-c2ccc(Br)cc2)c(=O)o1` [Compound 3e, 4-(4-Bromophenyl)-2-(cyclopropanecarbonyl)isoxazol-5(2H)-one], with 31 ± 3 nM.
The figure for `O=C(C1CC1)n1cc(-c2ccc(Cl)cc2)c(=O)o1` [Compound 3f, 4-(4-Chlorophenyl)-2-(cyclopropanecarbonyl)isoxazol-5(2H)-one] is 42 ± 8 nM; for `COc1ccc(-c2cn(C(=O)C3CC3)oc2=O)cc1` [Compound 3g, 2-(Cyclopropanecarbonyl)-4-(4-methoxyphenyl)isoxazol-5(2H)-one] it is 11 ± 3 nM.
As for `N#Cc1ccc(-c2cn(C(=O)C3CC3)oc2=O)cc1` [Compound 3h, 4-(2-(Cyclopropanecarbonyl)-5-oxo-2,5-dihydroisoxazol-4-yl)benzonitrile], the IC50 came out at 18 ± 5 nM.
The figure for `O=C(C1CC1)n1cc(-c2ccc(C(F)(F)F)cc2)c(=O)o1` [Compound 3i, 2-(Cyclopropanecarbonyl)-4-(4-(trifluoromethyl)phenyl)isoxazol-5(2H)-one] is 33 ± 1 nM.
Then `Cc1cccc(C(=O)n2cc(-c3ccccc3)c(=O)o2)c1` [Compound 4a, 2-(3-Methylbenzoyl)-4-phenylisoxazol-5(2H)-one], with 46 ± 12 nM; and `Cc1ccc(-c2cn(C(=O)c3cccc(C)c3)oc2=O)cc1` [Compound 4b, 2-(3-Methylbenzoyl)-4-(p-tolyl)isoxazol-5(2H)-one], with 22 ± 7 nM.
The figure for `Cc1cccc(C(=O)n2cc(-c3cccc(C)c3)c(=O)o2)c1` [Compound 4c, 2-(3-Methylbenzoyl)-4-(m-tolyl)isoxazol-5(2H)-one] is 31 ± 3 nM; for `Cc1cccc(C(=O)n2cc(-c3ccccc3C)c(=O)o2)c1` [Compound 4d, 2-(3-Methylbenzoyl)-4-(o-tolyl)isoxazol-5(2H)-one] it is 28 ± 3 nM.
In turn, `Cc1cccc(C(=O)n2cc(-c3ccc(Br)cc3)c(=O)o2)c1` [Compound 4e, 4-(4-Bromophenyl)-2-(3-methylbenzoyl)isoxazol-5(2H)-one] came in with an IC50 of 47 ± 7 nM.
Then `Cc1cccc(C(=O)n2cc(-c3ccc(Cl)cc3)c(=O)o2)c1` [Compound 4f, 4-(4-Chlorophenyl)-2-(3-methylbenzoyl)isoxazol-5(2H)-one], with 25 ± 2 nM.
In the case of `COc1ccc(-c2cn(C(=O)c3cccc(C)c3)oc2=O)cc1` [Compound 4g, 4-(4-Methoxyphenyl)-2-(3-methylbenzoyl)isoxazol-5(2H)-one], the IC50 was determined as 23 ± 7 nM.
Regarding `Cc1cccc(C(=O)n2cc(-c3ccc(C#N)cc3)c(=O)o2)c1` [Compound 4h, 4-(2-(3-Methylbenzoyl)-5-oxo-2,5-dihydroisoxazol-4-yl)benzonitrile], the concentration for half-maximal inhibition (IC50) worked out at 78 ± 2 nM.
The figure for `Cc1cccc(C(=O)n2cc(-c3ccc(C(F)(F)F)cc3)c(=O)o2)c1` [Compound 4i, 2-(3-Methylbenzoyl)-4-(4-[trifluoromethyl]phenyl)isoxazol-5(2H)-one] is 81 ± 28 nM.
